Like-named read-outs stand apart in the source and are kept apart here.
Key:
[1] = target: adenosine A2A receptor (Homo sapiens (Human), UniProt P29274); test: Adenosine receptor activity assay (Table 1), A2A activity; format: biochemical; settings: read-out: Ave A2A cAMP IC50
[2] = target: T1, adenosine A3 receptor (Homo sapiens (Human), UniProt P0DMS8); test: Adenosine receptor activity assay (Table 1), A3 cAMP; format: cell-based
[3] = target: T2, adenosine A1 receptor (Homo sapiens (Human), UniProt P30542); test: Adenosine receptor activity assay (Table 1), A1 cAMP; format: cell-based
T2 sequence (P30542 whole entry): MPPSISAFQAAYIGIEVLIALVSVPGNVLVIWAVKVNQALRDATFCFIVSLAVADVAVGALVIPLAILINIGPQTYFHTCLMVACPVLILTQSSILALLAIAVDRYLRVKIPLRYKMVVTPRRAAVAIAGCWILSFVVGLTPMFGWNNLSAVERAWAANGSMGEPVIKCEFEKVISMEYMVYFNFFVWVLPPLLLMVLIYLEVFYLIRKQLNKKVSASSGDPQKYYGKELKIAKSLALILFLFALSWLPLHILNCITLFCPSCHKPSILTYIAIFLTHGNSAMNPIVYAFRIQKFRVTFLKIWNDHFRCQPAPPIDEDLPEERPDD

[4] = target: adenosine A2B receptor (Homo sapiens (Human), UniProt P29275); test: Adenosine receptor activity assay (Table 1), A2B activity; format: biochemical; settings: for IC50: read-out: Ave A2B cAMP IC50
Chain of adenosine A2B receptor (P29275 whole entry): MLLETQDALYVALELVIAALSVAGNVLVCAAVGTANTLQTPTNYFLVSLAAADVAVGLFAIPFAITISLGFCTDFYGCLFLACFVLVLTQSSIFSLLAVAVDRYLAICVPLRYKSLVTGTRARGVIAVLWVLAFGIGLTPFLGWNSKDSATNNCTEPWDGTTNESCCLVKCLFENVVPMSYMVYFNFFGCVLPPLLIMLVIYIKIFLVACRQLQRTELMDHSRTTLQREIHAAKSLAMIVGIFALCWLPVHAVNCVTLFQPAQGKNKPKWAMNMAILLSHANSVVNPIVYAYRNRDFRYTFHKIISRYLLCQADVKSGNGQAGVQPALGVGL

[5] = target: T2, adenosine A1 receptor; test: Adenosine receptor activity assay (Table 1), A1 cAMP; format: biochemical
Procedure: (§1) Table 1. Compounds (e.g., Adenosine Receptor modulators) and activity assay results. The legend is as follows: A=<10 nM; B=10-50 nM; C=50-100 nM; D=100-500; and E=>500 nM. The ratio corresponds to the A2A activity to the A2B activity; or A2A/A2B.

[6] = target: T1, adenosine A3 receptor; test: Adenosine receptor activity assay (Table 1), A3 cAMP; format: biochemical
Procedure: as §1

[7] = A2A activity to A2B activity (A2A/A2B)
[8] = A2A activity to the A2B activity, A2A/A2B

T1 sequence (P0DMS8 whole entry): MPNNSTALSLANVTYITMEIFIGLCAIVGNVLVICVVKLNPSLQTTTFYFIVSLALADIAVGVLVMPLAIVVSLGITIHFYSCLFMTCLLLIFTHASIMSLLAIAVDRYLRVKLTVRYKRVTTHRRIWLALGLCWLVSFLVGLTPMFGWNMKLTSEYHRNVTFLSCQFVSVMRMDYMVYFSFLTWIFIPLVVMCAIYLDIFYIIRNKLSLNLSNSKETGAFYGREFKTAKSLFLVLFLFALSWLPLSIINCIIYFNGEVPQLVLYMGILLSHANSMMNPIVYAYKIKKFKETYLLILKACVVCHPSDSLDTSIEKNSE
Chain of adenosine A2A receptor (P29274 whole entry): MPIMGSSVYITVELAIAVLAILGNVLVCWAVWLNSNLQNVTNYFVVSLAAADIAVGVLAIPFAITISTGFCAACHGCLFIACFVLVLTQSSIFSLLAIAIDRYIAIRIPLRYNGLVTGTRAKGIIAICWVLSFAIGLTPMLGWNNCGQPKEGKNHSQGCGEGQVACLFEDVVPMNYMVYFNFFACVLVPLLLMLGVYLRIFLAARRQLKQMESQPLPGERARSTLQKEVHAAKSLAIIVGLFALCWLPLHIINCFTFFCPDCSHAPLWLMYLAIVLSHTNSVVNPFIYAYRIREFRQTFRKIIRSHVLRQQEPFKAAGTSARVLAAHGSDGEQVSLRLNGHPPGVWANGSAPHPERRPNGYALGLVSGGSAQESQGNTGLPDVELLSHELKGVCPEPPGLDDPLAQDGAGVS

IC50 [1] [µM]	IC50 [2] [µM]	IC50 [3] [µM]	Ratio [4, 7]	IC50 [4] [µM]	IC50 [5] [µM]	IC50 [6] [µM]	Ratio [4, 8]	Molecule
0.05 to 0.1	0.05 to 0.1	0.05 to 0.1	2.22	0.01 to 0.05	–	–	–	C[C@H](Nc1nc(C(=O)NC(C)(C)C)c2sccc2n1)c1ccccn1 [Example Z201, (S)—N-(tert-Butyl)-2-((1-(pyridin-2-yl)ethyl)amino)thieno[3,2-d]pyrimidine-4-carboxamide]
0.1 to 0.5	–	–	–	< 0.01	> 0.5	> 0.5	26.03	CNC(=O)NCC1CN(C(=O)c2nc(N[C@@H](C)c3cncc(F)c3)nc3ccsc23)C1 [Example Z576, (S)-1-((1-(2-((1-(5-Fluoropyridin-3-yl)ethyl)amino)thieno[3,2-d]pyrimidine-4-carbonyl)azetidin-3-yl)methyl)-3-methylurea]
0.01 to 0.05	–	–	–	0.01 to 0.05	> 0.5	> 0.5	0.37	C[C@H](Nc1nc(C(=O)N2CC(NC(=O)OC(C)(C)C)C2)c2sccc2n1)c1cncc(F)c1 [Example Z583, tert-Butyl (S)-(1-(2-((1-(5-fluoropyridin-3-yl)ethyl)amino)thieno[3,2-d]pyrimidine-4-carbonyl)azetidin-3-yl)carbamate]
0.1 to 0.5	–	–	–	0.01 to 0.05	> 0.5	> 0.5	21.44	CNC(=O)N1CCN(C(=O)c2nc(N[C@@H](C)c3cncc(F)c3)nc3ccsc23)C1 [Example Z585, (S)-3-(2-((1-(5-Fluoropyridin-3-yl)ethyl)amino)thieno[3,2-d]pyrimidine-4-carbonyl)-N-methylimidazolidine-1-carboxamide]
0.05 to 0.1	–	–	–	0.01 to 0.05	> 0.5	> 0.5	2.27	Cc1cc2nc(N[C@@H](C)c3cncc(F)c3)nc(C(=O)N3CC(CNC(=O)CC(C)(C)C)C3)c2s1 [Example Z586, (S)—N-((1-(2-((1-(5-Fluoropyridin-3-yl)ethyl)amino)-6-methylthieno[3,2-d]pyrimidine-4-carbonyl)azetidin-3-yl)methyl)-3,3-dimethylbutanamide]
< 0.01	–	–	–	0.01 to 0.05	> 0.5	0.01 to 0.05	0.14	Cc1cc2nc(N[C@@H](C)c3cncc(F)c3)nc(C(=O)N3CC(NC(=O)OCC(C)(C)C)C3)c2s1 [Example Z591, Neopentyl (S)-(1-(2-((1-(5-fluoropyridin-3-yl)ethyl)amino)-6-methylthieno[3,2-d]pyrimidine-4-carbonyl)azetidin-3-yl)carbamate]
0.01 to 0.05	–	–	–	< 0.01	< 0.01	< 0.01	9.45	Cc1cc2nc(N[C@@H](C)c3cncc(F)c3)nc(C(=O)N3CC[C@H]3C)c2s1 [Example Z595, (2-(((S)-1-(5-Fluoropyridin-3-yl)ethyl)amino)-6-methylthieno[3,2-d]pyrimidin-4-yl)((R)-2-methylazetidin-1-yl)methanone]
0.01 to 0.05	–	–	–	< 0.01	< 0.01	< 0.01	10.34	Cc1cc2nc(N[C@@H](C)c3cncc(F)c3)nc(C(=O)N3CC[C@@H]3C)c2s1 [Example Z596]
> 0.5	–	–	–	0.01 to 0.05	< 0.01	< 0.01	99.33	Cc1cc2nc(N[C@@H](C)c3cncc(F)c3)nc(C(=O)N3CC[C@@H](CN)C3)c2s1 [Example Z597, ((S)-3-(Aminomethyl)pyrrolidin-1-yl)(2-(((S)-1-(5-fluoropyridin-3-yl)ethyl)amino)-6-methylthieno[3,2-d]pyrimidin-4-yl)methanone]

More lines, now with the values behind:

Molecule	IC50 [1] [µM]	IC50 [2] [µM]	IC50 [3] [µM]	Ratio [4, 7]	IC50 [4] [µM]	IC50 [5] [µM]	IC50 [6] [µM]	Ratio [4, 8]
CC(C)NC(=O)c1nc(N[C@@H](C)c2ccccn2)nc2ccsc12 [Example Z199, (S)—N-Isopropyl-2-((1-(pyridin-2-yl)ethyl)amino)thieno[3,2-d]pyrimidine-4-carboxamide]	0.01 to 0.05	0.05 to 0.1	> 0.5	3.51	< 0.01	–	–	–
CNc1cc2nc(N[C@@H](C)c3ccccn3)nc(C(=O)N3CC(O)C3)c2s1 [Example Z221, (S)-(3-Hydroxyazetidin-1-yl)(6-(methylamino)-2-((1-(pyridin-2-yl)ethyl)amino)thieno[3,2-d]pyrimidin-4-yl)methanone]	> 0.5	0.05 to 0.1	> 0.5	52.95	0.01 to 0.05	–	–	–
CNc1cc2nc(N[C@@H](C)c3ccccn3)nc(C(=O)NCCO)c2s1 [Example Z222, (S)—N-(2-Hydroxyethyl)-6-(methylamino)-2-((1-(pyridin-2-yl)ethyl)amino)thieno[3,2-d]pyrimidine-4-carboxamide]	> 0.5	> 0.5	> 0.5	44.93	0.01 to 0.05	–	–	–
C[C@H](Nc1nc(C(=O)N2CC(CNC(=O)N(C)C)C2)c2sccc2n1)c1cncc(F)c1 [Example Z577, (S)-3-((1-(2-((1-(5-Fluoropyridin-3-yl)ethyl)amino)thieno[3,2-d]pyrimidine-4-carbonyl)azetidin-3-yl)methyl)-1,1-dimethylurea]	0.05 to 0.1	–	–	–	0.01 to 0.05	> 0.5	> 0.5	6.37
CC(C)C(=O)NCC1CN(C(=O)c2nc(N[C@@H](C)c3cncc(F)c3)nc3ccsc23)C1 [Example Z578, (S)—N-((1-(2-((1-(5-Fluoropyridin-3-yl)ethyl)amino)thieno[3,2-d]pyrimidine-4-carbonyl)azetidin-3-yl)methyl)isobutyramide]	0.05 to 0.1	–	–	–	0.01 to 0.05	> 0.5	> 0.5	4.95
C[C@H](Nc1nc(C(=O)N2CC(C(=O)NOC(C)(C)C)C2)c2sccc2n1)c1cncc(F)c1 [Example Z579, (S)—N-(tert-Butoxy)-1-(2-((1-(5-fluoropyridin-3-yl)ethyl)amino)thieno[3,2-d]pyrimidine-4-carbonyl)azetidine-3-carboxamide]	0.05 to 0.1	–	–	–	0.05 to 0.1	> 0.5	> 0.5	1.29
Cc1cc2nc(N[C@@H](C)c3cncc(F)c3)nc(C(=O)N3CC(CC(=O)OC(C)(C)C)C3)c2s1 [Example Z580, tert-Butyl (S)-2-(1-(2-((1-(5-Fluoropyridin-3-yl)ethyl)amino)-6-methylthieno[3,2-d]pyrimidine-4-carbonyl)azetidin-3-yl)acetate]	0.01 to 0.05	–	–	–	0.01 to 0.05	> 0.5	0.1 to 0.5	1.19
C[C@H](Nc1nc(C(=O)N2CC(CNC(=O)OCC(C)(C)C)C2)c2sccc2n1)c1cncc(F)c1 [Example Z581, Neopentyl (S)-((1-(2-((1-(5-fluoropyridin-3-yl)ethyl)amino)thieno[3,2-d]pyrimidine-4-carbonyl)azetidin-3-yl)methyl)carbamate]	0.01 to 0.05	–	–	–	0.01 to 0.05	> 0.5	> 0.5	1.68
Cc1cc2nc(N[C@@H](C)c3cncc(F)c3)nc(C(=O)N3CC(NC(=O)C(C)C)C3)c2s1 [Example Z588, (S)—N-(1-(2-((1-(5-Fluoropyridin-3-yl)ethyl)amino)-6-methylthieno[3,2-d]pyrimidine-4-carbonyl)azetidin-3-yl)isobutyramide]	< 0.01	–	–	–	0.01 to 0.05	> 0.5	0.1 to 0.5	0.26
Cc1cc2nc(N[C@@H](C)c3cncc(F)c3)nc(C(=O)N3CC(C(=O)NOC(C)(C)C)C3)c2s1 [Example Z592, (S)—N-(tert-Butoxy)-1-(2-((1-(5-fluoropyridin-3-yl)ethyl)amino)-6-methylthieno[3,2-d]pyrimidine-4-carbonyl)azetidine-3-carboxamide]	0.05 to 0.1	–	–	–	0.01 to 0.05	> 0.5	> 0.5	4.67
Cc1cc2nc(N[C@@H](C)c3cncc(F)c3)nc(C(=O)N3CCN(C(=O)NC(C)C)C3)c2s1 [Example Z593, (S)-3-(2-((1-(5-Fluoropyridin-3-yl)ethyl)amino)-6-methylthieno[3,2-d]pyrimidine-4-carbonyl)-N-isopropylimidazolidine-1-carboxamide]	0.05 to 0.1	–	–	–	0.01 to 0.05	> 0.5	> 0.5	3.25
C[C@H](Nc1nc(C(=O)N2CC(NC(=O)C(C)(C)C)C2)c2sccc2n1)c1cncc(F)c1 [Example Z594, (S)—N-(1-(2-((1-(5-Fluoropyridin-3-yl)ethyl)amino)thieno[3,2-d]pyrimidine-4-carbonyl)azetidin-3-yl)pivalamide]	< 0.01	–	–	–	0.01 to 0.05	> 0.5	0.05 to 0.1	0.15
Cc1cc2nc(N[C@@H](C)c3cncc(F)c3)nc(C(=O)N3CC(NC(=O)[C@@H]4CCOC4)C3)c2s1 [Example Z598, (R)—N-(1-(2-(((S)-1-(5-Fluoropyridin-3-yl)ethyl)amino)-6-methylthieno[3,2-d]pyrimidine-4-carbonyl)azetidin-3-yl)tetrahydrofuran-3-carboxamide]	0.01 to 0.05	–	–	–	0.01 to 0.05	> 0.5	0.1 to 0.5	0.68
(S)—N-((6-methoxypyridin-2-yl)methyl)-6-methyl-2-((1-(pyridin-2-yl)ethyl)amino)thieno[3,2-d]pyrimidine-4-carboxamide [Example Z464]	0.1 to 0.5	–	–	–	< 0.01	> 0.5	0.05 to 0.1	19.50
